# From patent publication US20100029657A1, “Bridged, Bicyclic Heterocyclic or Spiro Bicyclic Heterocyclic Derivatives of Pyrazolo[1, 5-A]Pyrimidines, Methods for Preparation and Uses Thereof” (Wyeth, priority 2008, published 2010)
# Structures can show the parent of a compound that is named as a salt.
# Target: T1, Flag/GST-tagged recombinant human B-Raf (Homo sapiens, UniProt P15056)
# T1 construct: Flag; GST; made in house; host or cells: Sf9 insect cells (B-Raf); E. coli (MEK1-GST)
# Assay: B-Raf kinase assay (phosphorylation of GST-MEK1, phospho-MEK1 antibody/Europium detection)
# Format: biochemical
# Settings: B-Raf IC50 Data for compounds of Formula A; read-out: Mean IC50
# Summary of the method: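 Active B-Raf (0.2 nM) phosphorylates GST-MEK1 in 20 mM MOPS pH 7.2 buffer with DTT, vanadate and 0.01% Triton X-100. The Mg/ATP cocktail (200 μM ATP, 40 mM MgCl2) is added, then incubation runs 45 min at RT. Product is captured on anti-GST plates and detected by anti-phospho-MEK1 plus Europium-anti-rabbit fluorescence, giving % inhibition per concentration.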
# T1 sequence (P15056 whole entry): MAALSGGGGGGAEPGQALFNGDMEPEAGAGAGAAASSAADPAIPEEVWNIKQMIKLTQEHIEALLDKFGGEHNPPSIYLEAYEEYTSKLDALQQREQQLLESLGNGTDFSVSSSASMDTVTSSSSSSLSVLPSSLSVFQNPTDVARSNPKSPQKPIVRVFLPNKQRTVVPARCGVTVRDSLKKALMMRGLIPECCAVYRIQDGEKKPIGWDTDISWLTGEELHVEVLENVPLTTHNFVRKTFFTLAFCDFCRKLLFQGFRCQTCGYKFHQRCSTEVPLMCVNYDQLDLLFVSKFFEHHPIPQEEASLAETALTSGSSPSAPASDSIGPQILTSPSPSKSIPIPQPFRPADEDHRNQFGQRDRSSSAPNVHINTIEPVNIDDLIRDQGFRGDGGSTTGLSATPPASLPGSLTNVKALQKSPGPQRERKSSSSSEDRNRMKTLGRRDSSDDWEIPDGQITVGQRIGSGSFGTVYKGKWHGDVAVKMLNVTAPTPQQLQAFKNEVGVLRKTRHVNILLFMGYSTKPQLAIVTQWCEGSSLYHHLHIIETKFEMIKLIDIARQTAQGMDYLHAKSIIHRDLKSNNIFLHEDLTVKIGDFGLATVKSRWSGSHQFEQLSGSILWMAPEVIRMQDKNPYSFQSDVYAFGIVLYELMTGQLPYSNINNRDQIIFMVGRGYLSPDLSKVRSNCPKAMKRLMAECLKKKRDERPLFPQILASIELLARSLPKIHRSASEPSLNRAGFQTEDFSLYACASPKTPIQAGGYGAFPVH
row,IC50,SMILES
1,< 0.3 nM,"Clc1cc(N2C[C@@H]3C[C@H]2CN3)ccc1-c1ccnc2c(-c3cccc4[nH]ncc34)c(-c3ccncc3)nn12 [Example 97, 7-[2-Chloro-4-((1S,4S)-2,5-diaza-bicyclo[2.2.1]hept-2-yl)-phenyl]-3-(1H-indazol-4-yl)-2-pyridin-4-yl-pyrazolo[1,5-a]pyrimidine bis-hydrochloride salt]"
2,< 0.3 nM,"CN1C[C@@H]2C[C@H]1CN2c1ccc(-c2ccnc3c(-c4cccc5[nH]ncc45)c(-c4ccncc4)nn23)c(Cl)c1 [Example 98, 7-[2-Chloro-4-((1S,4S)-5-methyl-2,5-diaza-bicyclo[2.2.1]hept-2-yl)-phenyl]-3-(1H-indazol-4-yl)-2-pyridin-4-yl-pyrazolo[1,5-a]pyrimidine]"
3,1.6 nM,"CC(C)(C)OC(=O)N1C[C@@H]2C[C@H]1CN2c1cc(F)c(-c2ccnc3c(-c4cccc5[nH]ncc45)c(-c4ccncc4)nn23)c(F)c1 [Example 99, tert-butyl(1S,4S)-5-{3,5-difluoro-4-[3-(1H-indazol-4-yl)-2-pyridin-4-ylpyrazolo[1,5-a]pyrimidin-7-yl]phenyl}-2,5-diazabicyclo[2.2.1]heptane-2-carboxylate]"
4,< 0.2 nM,"Fc1cc(N2C[C@@H]3C[C@H]2CN3)cc(F)c1-c1ccnc2c(-c3cccc4[nH]ncc34)c(-c3ccncc3)nn12 [Example 100, 7-(4-((1S,4S)-2,5-diazabicyclo[2.2.1]heptan-2-yl)-2,6-difluorophenyl)-3-(1H-indazol-4-yl)-2-(pyridin-4-yl)pyrazolo[1,5-a]pyrimidine]"
5,< 0.1 nM,"CN1C[C@@H]2C[C@H]1CN2c1cc(F)c(-c2ccnc3c(-c4cccc5[nH]ncc45)c(-c4ccncc4)nn23)c(F)c1 [Example 101, 7-{2,6-difluoro-4-[(1S,4S)-5-methyl-2,5-diazabicyclo[2.2.1]hept-2-yl]phenyl}-3-(1H-indazol-4-yl)-2-pyridin-4-yl pyrazolo[1,5-a]pyrimidine]"
6,2.04 nM,"CC(C)(C)OC(=O)N1C[C@@H]2C[C@H]1CN2c1ccc(-c2ccnc3c(-c4ccc(F)c5[nH]ncc45)c(-c4ccncc4)nn23)cc1 [Example 102, tert-Butyl(1S,4S)-5-{4-[3-(7-fluoro-1H-indazol-4-yl)-2-pyridin-4-ylpyrazolo[1,5-a]pyrimidin-7-yl]phenyl}-2,5-diazabicyclo[2.2.1]heptane-2-carboxylate]"
7,< 0.3 nM,"Fc1ccc(-c2c(-c3ccncc3)nn3c(-c4ccc(N5C[C@@H]6C[C@H]5CN6)cc4)ccnc23)c2cn[nH]c12 [Example 103, 7-[4-(2,5-Diaza-bicyclo[2.2.1]hept-2-yl)-phenyl]-3-(7-fluoro-1H-indazol-4-yl)-2-pyridin-4-yl-pyrazolo[1,5-a]pyrimidine]"
8,0.24 nM,"CN1C[C@@H]2C[C@H]1CN2c1ccc(-c2ccnc3c(-c4ccc(F)c5[nH]ncc45)c(-c4ccncc4)nn23)cc1 [Example 104, 3-(7-fluoro-1H-indazol-4-yl)-7-{4-[(1S,4S)-5-methyl-2,5-diazabicyclo[2.2.1]hept-2-yl]phenyl}-2-pyridin-4-ylpyrazolo[1,5-a]pyrimidine hydrochloride]"
9,< 0.3 nM,"Fc1cc(N2C[C@@H]3C[C@H]2CN3)ccc1-c1ccnc2c(-c3ccc(F)c4[nH]ncc34)c(-c3ccncc3)nn12 [Example 106, 7-{4-[(1S,4S)-2,5-diazabicyclo[2.2.1]hept-2-yl]-2-fluorophenyl}-3-(7-fluoro-1H-indazol-4-yl)-2-pyridin-4-yl pyrazolo[1 5-a]pyrimidine]"
10,< 0.3 nM,"CN1C[C@@H]2C[C@H]1CN2c1ccc(-c2ccnc3c(-c4ccc(F)c5[nH]ncc45)c(-c4ccncc4)nn23)c(F)c1 [Example 107, 3-(7-fluoro-1H-indazol-4-yl)-7-{2-fluoro-4-[(1S,4S)-5-methyl-2,5-diazabicyclo[2.2.1]hept-2-yl]phenyl}-2-pyridin-4-ylpyrazolo[1,5-a]pyrimidine]"
11,< 0.3 nM,"Fc1cc(N2C[C@@H]3C[C@H]2CN3)cc(F)c1-c1ccnc2c(-c3ccc(F)c4[nH]ncc34)c(-c3ccncc3)nn12 [Example 109, 7-{4-[(1S,4S)-2,5-Diazabicyclo[2.2.1]hept-2-yl]-2,6-difluorophenyl}-3-(7-fluoro-1H-indazol-4-yl)-2-pyridin-4-yl pyrazolo[1,5-a]pyrimidine]"
12,< 0.1 nM,"CN1C[C@@H]2C[C@H]1CN2c1cc(F)c(-c2ccnc3c(-c4ccc(F)c5[nH]ncc45)c(-c4ccncc4)nn23)c(F)c1 [Example 110, 7-{2,6-Difluoro-4-[(1S,4S)-5-methyl-2,5-diazabicyclo[2.2.1]hept-2-yl]phenyl}-3-(7-fluoro-1H-indazol-4-yl)-2-pyridin-4-yl pyrazolo[1,5-a]pyrimidine]"
13,9.1 nM,"NC(=O)N1C2CCC1CC(c1ccnc3c(-c4cccc5[nH]ncc45)c(-c4ccncc4)nn13)C2 (stereo not drawn) [Example 115, 3-[3-(1H-indazol-4-yl)-2-pyridin-4-ylpyrazolo[1,5-a]pyrimidin-7-yl]-8-azabicyclo[3.2.1]octane-8-carboxamide]"
14,61.8 nM,"CN(C)CC(=O)N1C2CCC1CC(c1ccnc3c(-c4cccc5[nH]ncc45)c(-c4ccncc4)nn13)C2 (stereo not drawn) [Example 116, 2-{3-[3-(1H-indazol-4-yl)-2-pyridin-4-ylpyrazolo[1,5-a]pyrimidin-7-yl]-8-azabicyclo[3.2.1]oct-8-yl}-N,N-dimethyl-2-oxoethanamine]"
15,2.8 nM,"N#CCN1C2CCC1CC(c1ccnc3c(-c4cccc5[nH]ncc45)c(-c4ccncc4)nn13)C2 (stereo not drawn) [Example 117, {3-[3-(1H-indazol-4-yl)-2-pyridin-4-ylpyrazolo[1,5-a]pyrimidin-7-yl]-8-azabicyclo[3.2.1]oct-8-yl}acetonitrile]"
16,> 100 nM,"COc1cc(-c2c(-c3ccncc3)nn3c(CN4C[C@@H]5C[C@H]4CN5C(=O)OC(C)(C)C)ccnc23)ccc1Cl [Example 121, tert-butyl (1S,4S)-5-{[3-(4-chloro-3-methoxyphenyl)-2-pyridin-4-ylpyrazolo[1,5-a]pyrimidin-7-yl]methyl}-2,5-diazabicyclo[2.2.1]heptane-2-carboxylate]"
17,19.1 nM,"CC(C)(C)OC(=O)N1C[C@@H]2C[C@H]1CN2c1ccc(-c2ccn3nc(-c4ccncc4)c(-c4ccc(F)c5[nH]ncc45)c3n2)cc1 [Example 122, tert-butyl (1S,4S)-5-{4-[3-(7-fluoro-1H-indazol-4-yl)-2-pyridin-4-ylpyrazolo[1,5-a]pyrimidin-5-yl]phenyl}-2,5-diazabicyclo[2.2.1]heptane-2-carboxylate]"
18,37.6 nM,"c1cc(-c2ccnc3c(-c4cccc5[nH]ncc45)c(-c4ccncc4)nn23)cc(N2C[C@@H]3C[C@H]2CN3)c1 [Example 124, 7-{3-[(1S,4S)-2,5-diazabicyclo[2.2.1]hept-2-yl]phenyl}-3-(1H-indazol-4-yl)-2-pyridin-4-ylpyrazolo[1,5-a]pyrimidine]"
19,44.9 nM,"CC(C)(C)OC(=O)N1C[C@@H]2C[C@H]1CN2c1ccc(-c2ccnc3c(-c4ccc(Cl)c5[nH]ncc45)c(-c4ccncc4)nn23)cc1 [Example 125, tert-butyl (1S,4S)-5-{4-[3-(7-chloro-1H-indazol-4-yl)-2-pyridin-4-ylpyrazolo[1,5-a]pyrimidin-7-yl]phenyl}-2,5-diazabicyclo[2.2.1]heptane-2-carboxylate]"
20,61.2 nM,"CN1C[C@@H]2C[C@H]1CN2c1cccc(-c2ccnc3c(-c4cccc5[nH]ncc45)c(-c4ccncc4)nn23)c1 [Example 126, 3-(1H-indazol-4-yl)-7-{3-[(1S,4S)-5-methyl-2,5-diazabicyclo[2.2.1]hept-2-yl]phenyl}-2-pyridin-4-ylpyrazolo[1,5-a]pyrimidine]"
21,31.3 nM,"Clc1ccc(-c2c(-c3ccncc3)nn3c(-c4ccc(N5C[C@@H]6C[C@H]5CN6)cc4)ccnc23)c2cn[nH]c12 [Example 127, 3-(7-chloro-1H-indazol-4-yl)-7-{4-[(1S,4S)-2,5-diazabicyclo[2.2.1]hept-2-yl]phenyl}-2-pyridin-4-ylpyrazolo[1,5-a]pyrimidine]"
22,39.4 nM,"CC(C)(C)OC(=O)N1CCC[C@H]1C(=O)N1C2CCC1CC(c1ccnc3c(-c4cccc5[nH]ncc45)c(-c4ccncc4)nn13)C2 (stereo partly drawn) [Example 128, tert-butyl (2S)-2-({3-[3-(1H-indazol-4-yl)-2-pyridin-4-ylpyrazolo[1,5-a]pyrimidin-7-yl]-8-azabicyclo[3.2.1]oct-8-yl}carbonyl)pyrrolidine-1-carboxylate]"

row,SMILES,IC50
1,"OCCN1C2CCC1CC(c1ccnc3c(-c4cccc5[nH]ncc45)c(-c4ccncc4)nn13)C2 (stereo not drawn) [Example 112, 2-{3-[3-(1H-indazol-4-yl)-2-pyridin-4-ylpyrazolo[1,5-a]pyrimidin-7-yl]-8-azabicyclo[3.2.1]oct-8-yl}ethanol]",22.8 nM
2,"CC(C)N1C2CCC1CC(c1ccnc3c(-c4cccc5[nH]ncc45)c(-c4ccncc4)nn13)C2 (stereo not drawn) [Example 113, 3-(1H-indazol-4-yl)-7-(8-isopropyl-8-azabicyclo[3.2.1]oct-3-yl)-2-pyridin-4-ylpyrazolo[1,5-a]pyrimidine]",67 nM
3,"CCNC(=O)N1C2CCC1CC(c1ccnc3c(-c4cccc5[nH]ncc45)c(-c4ccncc4)nn13)C2 (stereo not drawn) [Example 118, N-ethyl-3-[3-(1H-indazol-4-yl)-2-pyridin-4-ylpyrazolo[1,5-a]pyrimidin-7-yl]-8-azabicyclo[3.2.1]octane-8-carboxamide]",6.7 nM
4,"CC(=O)N1C2CCC1CC(c1ccnc3c(-c4cccc5[nH]ncc45)c(-c4ccncc4)nn13)C2 (stereo not drawn) [Example 119, 7-(8-acetyl-8-azabicyclo[3.2.1]oct-3-yl)-3-(1H-indazol-4-yl)-2-pyridin-4-ylpyrazolo[1,5-a]pyrimidine]",9.1 nM
5,"CN(C)C(=O)N1C2CCC1CC(c1ccnc3c(-c4cccc5[nH]ncc45)c(-c4ccncc4)nn13)C2 (stereo not drawn) [Example 120, 3-[3-(1H-indazol-4-yl)-2-pyridin-4-ylpyrazolo[1,5-a]pyrimidin-7-yl]-N,N-dimethyl-8-azabicyclo[3.2.1]octane-8-carboxamide]",6.4 nM
